Measured values taken from publication PMC9541495, “Understanding the interaction of 14‐3‐3 proteins with hDMX and hDM2: a structural and biophysical study” (The Febs Journal, 2022).
Where a SMILES comes first, the peptide text is derived from it. [ ]: non-standard residue; d: D form. The star is where a group is joined. 5FAM = O=C1OC2(c3ccc(O)cc3Oc3cc(O)ccc32)c2ccc(C(=O)*)cc21; pS = N[C@@H](COP(=O)(O)O)C(=O)O; Ahx = NCCCCCC(=O)O

Key:
Type in all cases: binding
[1] = biological target: T1, 14‐3‐3 σ (Homo sapiens, UniProt P31947); experiment: Fluorescence anisotropy direct titration, 14‐3‐3σ; details: FA direct titration; FAM‐Ahx tracer peptide 50 nM; HEPES/NaCl/Tween 20/BSA pH 7.4; 1:1 fit; n = 3; read-out: K d, 14‐3‐3 σ
T1 construct: full‐length proteins were concentrated by centrifugation, rebuffered in HEPES buffer; made in house; host or cells: E. coli BL21(DE3)
T1 sequence (P31947 1-248): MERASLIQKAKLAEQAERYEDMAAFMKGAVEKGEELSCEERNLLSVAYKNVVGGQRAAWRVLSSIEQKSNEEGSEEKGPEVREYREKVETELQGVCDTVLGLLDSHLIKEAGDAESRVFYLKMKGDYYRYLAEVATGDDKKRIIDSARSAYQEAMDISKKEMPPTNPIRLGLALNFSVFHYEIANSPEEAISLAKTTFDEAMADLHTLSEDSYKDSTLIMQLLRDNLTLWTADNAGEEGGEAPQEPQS
Excerpt: (§1) 14‐3‐3 proteins were titrated against a constant concentration of the tracer resulting in an increase of anisotropy upon engaging 14‐3‐3 proteins (Fig. 2A–C for 14‐3‐3 binding hDMX sequences and Figs S4–S6, for 14‐3‐3 binding hDM2 sequences, non‐binding sequence, and unphosphorylated controls). A noteworthy feature of the data is that different maximum anisotropy levels were observed between hDMX or hDM2 peptides and 14‐3‐3 isoforms, indicating different diffusion properties of the fluorophore when bound to the different 14‐3‐3 isoforms. […]
(§2) […]
(§3) All assays were performed in 384 well plates (each experiment was run in triplicates) and data were collected by Perkin Elmer EnVision […] plate reader with excitation at 480 nm (30 nm bandwidth), polarised dichroic mirror at 505 nm and emission at 535 nm (40 nm bandwidth, S and P polarised). […] A ½ fold dilution series was performed in the titration, with plates read after 30 min, 4 h and 20–24 h. […] Total intensity I and anisotropy r were calculated using Equations 1 and 2 for each well. […]

[2] = biological target: T2, 14‐3‐3 τ (Homo sapiens, UniProt P27348); experiment: Fluorescence anisotropy direct titration, 14‐3‐3τ; details: FA direct titration; FAM‐Ahx tracer peptide 50 nM; HEPES/NaCl/Tween 20/BSA pH 7.4; 1:1 fit; n = 3; read-out: K d, 14‐3‐3 τ
T2 construct: full‐length proteins were concentrated by centrifugation, rebuffered in HEPES buffer; made in house; host or cells: E. coli BL21(DE3)
T2 sequence (P27348 1-245): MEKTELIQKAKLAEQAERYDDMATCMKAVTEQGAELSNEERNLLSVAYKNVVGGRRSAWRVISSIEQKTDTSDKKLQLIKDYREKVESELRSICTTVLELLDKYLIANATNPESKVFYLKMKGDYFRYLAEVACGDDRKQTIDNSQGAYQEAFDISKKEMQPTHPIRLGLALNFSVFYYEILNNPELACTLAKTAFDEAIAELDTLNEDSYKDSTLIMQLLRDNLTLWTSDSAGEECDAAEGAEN
Excerpt: as §1, §2, §3

[3] = biological target: T3, 14‐3‐3 ε (Homo sapiens, UniProt P62258); experiment: Fluorescence anisotropy direct titration, 14‐3‐3ε; details: FA direct titration; FAM‐Ahx tracer peptide 50 nM; HEPES/NaCl/Tween 20/BSA pH 7.4; 1:1 fit; n = 3; read-out: K d, 14‐3‐3 ε
T3 construct: full‐length proteins were concentrated by centrifugation, rebuffered in HEPES buffer; made in house; host or cells: E. coli BL21(DE3)
T3 sequence (P62258 1-255): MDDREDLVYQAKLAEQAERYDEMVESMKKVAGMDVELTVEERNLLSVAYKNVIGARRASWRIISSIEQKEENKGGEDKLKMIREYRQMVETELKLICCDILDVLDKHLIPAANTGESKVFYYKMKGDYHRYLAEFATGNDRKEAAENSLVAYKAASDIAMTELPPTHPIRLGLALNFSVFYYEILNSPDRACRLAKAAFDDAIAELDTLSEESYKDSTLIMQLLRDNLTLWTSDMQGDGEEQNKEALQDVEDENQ
Excerpt: as §1, §2, §3

Kd [1]: > 170 µM
Kd [2]: > 250 µM
Kd [3]: > 260 µM
SMILES: CC[C@H](C)[C@H](NC(=O)[C@H](CO)NC(=O)[C@H](CC(=O)O)NC(=O)[C@H](COP(=O)(O)O)NC(=O)[C@H](CCCCN)NC(=O)[C@H](Cc1c[nH]cn1)NC(=O)[C@H](CCCNC(=N)N)NC(=O)[C@H](CCCCN)NC(=O)[C@H](CCCNC(=N)N)NC(=O)[C@H](CCC(N)=O)NC(=O)CCCCCNC(=O)c1ccc2c(c1)C(=O)OC21c2ccc(O)cc2Oc2cc(O)ccc21)C(=O)N[C@@H](CO)C(=O)N[C@@H](CC(C)C)C(=O)N[C@@H](CO)C(N)=O [hDM2_180‐192 ^pSer186] ({5FAM-Ahx}-QRKRHK[pS]DSISLS-NH2)
